Series [1] has as its system emesis induced by apomorphine IV and syrup of ipecac orally. As to conditions: dogs; centrally acting emetogens (apomorphine IV) and peripherally acting emetogens (syrup of ipecac orally); cited from earlier work.
A short description of series [2]: Competitive slurry experiments of polymorphic forms. Format: physicochemical. As to conditions: competitive slurry of Form 1 with Form 2 and Form 3 in acetonitrile at room temperature (20-25° C.) and 75° C. From the text:
Three anhydrous polymorphic forms of telmapitant or (5R,8S)-8-[[(1R)-1-[3,5-bis(trifluoromethyl)phenyl]ethoxy]methyl]-8-phenyl-1,3,7-triazaspiro[4.5]decane-2,4-dione (MK-7035) have been identified during polymorph screening.

Regarding `COc1ccc(C(C)(C)C)cc1CN[C@H]1C2CCN(CC2)[C@H]1C(c1ccccc1)c1ccccc1` [maropitant], in series [1], the efficacy against emetogens result is “effective”.

With `C[C@@H](OC[C@@]1(c2ccccc2)CC[C@]2(CN1)NC(=O)NC2=O)c1cc(C(F)(F)F)cc(C(F)(F)F)c1` [Form 1, (5R,8S)-8-[[(1R)-1-[3,5-bis(trifluoromethyl)phenyl]ethoxy]methyl]-8-phenyl-1,3,7-triazaspiro[4.5]decane-2,4-dione], the “relative thermodynamic stability of polymorphic forms” value in series [2] was “thermodynamically more stable than Form 2 and Form 3”.

The record behind these values is US20220227769A1, “CRYSTALLINE FORM OF TELMAPITANT OR (5R,8S)-8-[[(1R)-1-[3,5-BIS(TRIFLUOROMETHYL)PHENYL]ETHOXY]METHYL]-8-PHENYL-1,3,7-TRIAZASPIRO[4.5]DECANE-2,4-DIONE” (Intervet Inc., priority 2019, published 2022).
